Experimental findings from patent US6624187B1, “Long wave length absorbing bacteriochlorin alkyl ether analogs” (Health Research, Inc., priority 2000, dated 2003) are described below.

Data set [1] has as its system RIF tumor. As to the kind of experiment: In vivo photosensitizing efficacy of bacteriopurpurinimides against RIF tumor. The note with it: for Tumor Response (%): Day 7-90. As to the method: The photosensitizers were dissolved in known quantity of Tween 80 (Aldrich) surfactant and diluted by a factor of 10 with 5% dextrose solution in water to produce a final Tween 80 concentration of 1%. The solution was then filtered through a syringe filter. The concentration of the solution was determined on the basis of the extinction coefficient value of the photosensitizer at the longest wavelength absorption.
Before injecting the drug to the animals, the purity of the material was confirmed by HPLC using a Spectra-Physics system connected to a SP8 700 solvent delivery system and Kratos 757 absorption detector with a fixed wavelength at 405 or 786 nm. Two solvent systems were used in the HPLC analysis: solvent A was prepared by dissolving anhydrous dibasic sodium phosphate (1.0 g) in 400 ml water. To this was added HPLC grade methanol (600 ml). The pH of the solution was adjusted to 7.5 with phosphoric acid; and solvent B was prepared by dissolving anhydrous dibasic sodium phosphate (0.3 g) in 100 ml water, to this was added methanol (900 ml), and the pH was adjusted to 7.5 with phosphoric acid. Solvents A and B were used as gradient mode (0-10 min A, 10-40 min A-B, 40-50 min B, 50-60 min back to A). In some cases solvent B was used as isocratic mode (column reverse phase C-8, flow rate 1.5 ml/min). Prior to irradiation, the fur over grown and surrounding the tumor was removed with electric clippers. Twenty four hours after injecting the drug, the mouse was placed in a custom made aluminum holder. Standard light dose 75 mW/cm^2 for 30 min for a total incident light dose of 135 J/cm^2 from a tunable dye laser tuned to the maximum red absorption peak at 790 nm (in vivo absorption, determined by in vivo reflectance spectroscopy). Laser output was measured with a power meter.
Following light exposure, the mice were kept in groups of 5/cage and supplied with pelleted food and water ad libitum. Tumor size and gross appearance of both tumor and overlying skin was monitored daily for 90 days after photo-illumination unless growth of non-responsive tumor require early sacrifice of those animals.
Bacteriopurpurin-imides 5-7 above have been evaluated for in vivo studies in a mouse tumor model system (RIF tumor). […] The mice were treated with light (790 nm, 135 J/cm^2) after 24 h post injection of the drug (80% tumor cure on day 21 and 60% on day 90). […] The efficacy of the drug was also determined at variable drug and light doses.

For data set [2], the system named is RIF tumor. The experiment in a line: Tumor uptake and in vivo absorption shift by in vivo reflectance spectroscopy. Set-up: species or system mouse. As to the method:
FIGS. 4A and 4B show curves of in vivo light wave absorption of compound 7 in RIF tumor at 24 hours and 5 days post injection.
The tumor uptake and in vivo shift in the long wavelength absorption of the bacteriopurpurin-imide 7 was determined by in vivo reflectance spectroscopy. […] Thus, the tumors were irradiated with light at that particular wavelength. […] In vivo studies with these and other bacteriochlorin analogs at variable treatment conditions are currently in progress.

The test system of a further data set is mouse foot tissue. The experiment in a line: Foot response phototoxicity in mouse foot tissue. The note with it: 0.47 mmol/kg I.V.; 135 J/cm^2 at 790 nm; feet illuminated 5 days after injection. The data set is classed as in vivo. As to the method: Since prolonged cutaneous photosensitivity is a serious side-effect of Photofrin® administration, we tested the phototoxicity of 3-deacetyl-3-(1-heptyloxyethyl) bacteriopurpurin-18-N-hexylimide 7 in mouse foot tissue and the therapeutic drug and light doses. Mice were injected (I.V.) with 0.47 mmol/kg of the drug. Feet were illuminated with 135 J/cm^2 at 790 nm laser light on days 1, 2, 3, 4 and 5 (FIG. 5). Foot response was graded according to the following arbitrary scale: 0, no difference from normal; 0.1, very slight edema; 0.3, slight edema; 0.5, moderate edema; 0.75, large edema; 1, large edema with exudate; 1.2, moderate reddening with slight scaly or crusty appearance; 1.65, slight damage to toes; 1.75, definite damage or slight fusion of toes; 2.0, most toes fused; 2.5, foot almost shapeless with no toes; 3, only stub of foot remaining.

Data set [3] is described as follows: In vivo PDT efficacy of bacteriochlorin-N-hexylimide. From the text: Compared to the anhydride ring system, compounds with fused imide ring system in other compounds have shown stability in vivo. For example, among non-porphyrin systems, amonafide, an imide derivative and its structural analogs are reported as anti-neoplastic agents in vitro as well as in vivo with good stability. While we could not know how this might apply to non-porphyrin systems, we investigated the effect of such cyclic structures in the bacteriochlorin system. Initially we followed our own methodology developed for the preparation of purpurin-18-N-alkylimides (U.S. Pat. No. 5,952,366 incorporated herein by reference). Unfortunately, that approach produced a complex reaction mixture. Thus, in a modified approach, bacteriopurpurin-a 2 was first reacted with an alkyl amine (e.g. n-hexyl amine). The formation of the intermediate amide was monitored by spectrophotometry and analytical thin layer chromatography. The intermediate amide analog 3, obtained as a mixture of two isomers, was reacted with diazomethane, and the solvent was removed under vacuum. The residue so obtained was re-dissolved in tetrahydrofuran, and solvent was evaporated. This procedure was repeated several times until the disappearance of the absorption at 765 nm and appearance of a new peak at 822 nm.

[4] abbreviates: injected dose 0.2 μmol/kg, light 790 nm 175J/cm^2 24 h post injection.
The mark [5] stands for this setting: injected dose 0.47 μmol/kg, light 790 nm 135J/cm^2 24 h post injection.
[6] abbreviates: injected dose 1.0 μmol/kg, light 790 nm 135J/cm^2 24 h post injection, C3H mice.

Entries after “also recorded” stand apart in the source; their conditions may differ.

In the case of `CCCCCCCOC(C)c1c(C)c2cc3nc(c4c5[nH]c(cc6nc(cc1[nH]2)[C@H](C)[C@H]6CC)c(C)c5C(=O)N(CCCCCC)C4=O)[C@@H](CCC(=O)OCCC)[C@@H]3C` (stereo partly shown) [Compound 7, 3-Deacetyl-3-(1-heptyloxyethyl)-bacteriopurpurin-N-hexylimide Propyl Ester], the “mice tumor free on day 90” value with RIF tumor [1] (drug dose 0.2 μmol/kg, light dose 175 J/cm^2) is given as “four out of six”. Besides, the “mice died after the light treatment” value with RIF tumor [1] (drug dose 1.0 μmol/kg, light 790 nm, 135 J/cm^2) is recorded as 6/6. The “Tumor Response (%)” value is on record as “did not show any PDT efficacy; also recorded: NO RESPONSE” in the data set with RIF tumor [1] (injected dose 0.2 μmol/kg, light 790 nm 135J/cm^2 24 h post injection) and “ALL MICE DIED” with RIF tumor [1] (setting [6]). Moreover, the “Tumor Response (%) Day 7” value is on record as 100% with RIF tumor [1] (setting [4]) and 80% in the data set with RIF tumor [1] (setting [5]). In addition, the “Tumor Response (%) Day 21” value in the data set with RIF tumor [1] (setting [4]) is given as 70%; in the data set on RIF tumor [1] (setting [5]) it was 80%. Also, the results for the “Tumor Response (%) Day 90” value in the data set on RIF tumor [1] (setting [4]) and in the data set with RIF tumor [1] (setting [5]) were 70% and 60%, respectively. The “in vivo stability of fused imide ring system” value in the data set with RIF tumor [2] (5 day post injection) was “quite stable in vivo”. The tumor uptake entry in the data set with RIF tumor [2] (day 5 versus day 1 post injection, RIF tumor) was “significantly higher tumor uptake at day 5 than day 1”. Also, in the data set with mouse foot tissue, the foot response phototoxicity entry is recorded as “did not show any toxicity”.
With `CCCCCCN1C(=O)c2c3nc(cc4[nH]c(cc5nc(cc6[nH]c2c(c6C)C1=O)[C@H](CC)[C@H]5C)c(C(C)O)c4C)[C@@H](C)[C@@H]3CCC(=O)OCCC` (stereo partly shown) [Compound 5, 3-Deacetyl-3-(1-hydroxyethyl)bacteriopurrurin-18-N-hexylimide], in the data set with RIF tumor [1] (setting [6]), the “Tumor Response (%)” value was “did not produce any PDT efficacy; also recorded: NO RESPONSE”.
On the same count and under the same terms, under `C=Cc1c(C)c2cc3nc(c4c5[nH]c(cc6nc(cc1[nH]2)[C@H](C)[C@H]6CC)c(C)c5C(=O)N(CCCCCC)C4=O)[C@@H](CCC(=O)OCCC)[C@@H]3C` [Compound 6, 3-Deacetyl-3-vinyl-bacteriopurpurin-18-N-hexylimide Propylester] stands “did not produce any PDT efficacy; also recorded: NO RESPONSE”.
For “3-Acetyl-bacteriopurpurin-18-N-hexylimide [Compound 4]”, the “in vivo PDT efficacy” value in data set [3] is “did not produce any significant in vivo PDT efficacy”.
